Patent US20260199371A1, “COORDINATION COMPOUND, COMPOSITIONS, AND USES THEREOF FOR TREATING CANCERS” (HUEIYUAN BIOTECH LLC, priority 2023, published 2026)

What was measured:
[1] = tested on: T24 cells; conditions: 0-1600 μg/ml, 24 hours
Procedure: Human bladder carcinoma T24 cells (commercially available from ATCC under the number HTB-4) were cultured in RPMI 1640 medium supplemented with 10% FBS.

[2] = tested on: LoVo-parental cells; conditions: 24 hours
[3] = tested on: TT cells; conditions: 0.1-1000 μg/ml, 72 hours
Procedure: Human medullary thyroid carcinoma TT cells (commercially available from ATCC under the number CRL-1803) were cultured in F12K medium (Gibco™, Thermo Fisher Scientific, Waltham, MA, USA) supplemented with 10% FBS.

[4] = tested on: LoVo-parental cells; conditions: single agent: compound (II) 500 μg/ml or oxaliplatin 50 μg/ml, 72 hours
[5] = tested on: MDA-MB231 cells; conditions: 0-3000 μg/ml, 24 hours; effect more prominent than in T-47D
Procedure: (§1) Human breast cancer cells T-47D (commercially available from ATCC under the number HTB-133) and MDA-MB231 (commercially available from ATCC under the number HTB-26) were cultured in RPMI 1640 medium supplemented with 10% FBS.

[6] = tested on: T-47D cells; conditions: 0-3000 μg/ml, 24 hours
Procedure: as §1

## CC(=O)[O-].CC(=O)[O-].CC(=O)[O-].CC(=O)[O-].CC(=O)[O-].CC(=O)[O-].O.O.O.O.O=[N+]([O-])[O-].[Cr+3].[Fe+3].[Fe+3].[OH-].[OH-] [compound (II)]
[1]
  viability of T24 cells: reduced the viability of the bladder carcinoma cells in a dose-dependent manner
[2]; 0-4000 μg/ml
  viability of LoVo-parental cells: reduced the viability of both colorectal cancer cells in a dose-dependent manner
[2]; MTT
  IC50 against LoVo-parental cells: about 500 μg/ml
[3]
  viability of TT cells: reduced the viability of the TT cells in a dose-dependent manner
[4]
  invasion rate of LoVo-parental cells: significantly decreased
[5]
  viability of MDA-MB231 cells: reduced the viability of both breast cancer cells in a dose-dependent manner
[6]
  viability of T-47D cells: reduced the viability of both breast cancer cells in a dose-dependent manner
